The results in this text go back to the METLIN SMRT retention time set (Domingo-Almenara et al. 2019).

The data set is described as follows: gradient 5% acetonitrile 3 min, to 50% in 2 min, to 85% in 15 min, held 3 min, 100 µL/min. Conditions: column: Zorbax Extend-C18 2.1 x 50 mm; eluents: water / acetonitrile, 0.1% formic acid. The method, boiled down:
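Over 3 months, pure standards in mixtures of ~100 molecules were run by HPLC coupled to a quadrupole time-of-flight mass spectrometer in positive and negative ionization mode. The column was a Zorbax Extend-C18 (2.1 × 50 mm, 1.8 μm) at 100 μL/min, eluted with water and acetonitrile each holding 0.1% formic acid, with 40 μL dead and 900 μL dwell volumes. Retention time was determined from adduct peaks chosen by software and checked manually.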
`Cc1cccn2cc(-c3ccc(NS(=O)(=O)c4ccc(Cl)cc4)cc3)nc12` registered an RP-LC retention time of 701 s.
The same measure for `O=C(Cc1c[nH]c2ncccc12)NC1CCN(Cc2ccccc2)CC1`: 736 s; for `O=C1NC2(CCN(C(=O)Nc3ccc4c(c3)OCCO4)CC2)Oc2ccccc21`: 736 s; for `CC1CCN(S(=O)(=O)c2nn(Cc3ccccc3)cc2C(=O)O)CC1`: 882 s.
With `CCn1cnc(S(=O)(=O)N2CCCC(C(=O)Nc3ccc(F)cc3C)C2)c1` (centres undefined), the RP-LC retention time is 726 s.
Compound `COc1cc(OC)cc(-c2nnc(Cc3nc(-c4ccc(C)cc4)no3)o2)c1` yielded an RP-LC retention time of 1080 s.
As to `CCN(CC)CCCNC(=O)C1c2cc(OC)c(OC)cc2C(=O)N2CCc3ccccc3C12` (centres undefined), the RP-LC retention time is 608 s.
Regarding `CCC1CN2C=NC(N3CCN(C(=O)NCc4cccc(OC)c4)CC3)=CC2=N1` (centres undefined), the RP-LC retention time turned out to be 614 s.
The same measure for `COc1ccc(N2CC(c3noc(-c4ccc(Cl)cc4)n3)CC2=O)cc1` (centres undefined): 990 s; for `COc1cccc(CC(=O)NC(CC(C)C)C(=O)Nc2nc3ccccc3[nH]2)c1` (centres undefined): 721 s; for `CNC(=O)c1nn(-c2ccc(F)c(F)c2)c(OC)cc1=O`: 651 s.
The same measure for `CCCN1N=C(C(=O)N2CCCCCC2)S(=O)(=O)c2ccc(C)cc21`: 991 s; for `O=C(c1cc(Cl)ccc1F)N1CCc2nc(-c3ccc(Cl)cc3)ncc2C1`: 1150 s.
In turn, `COc1ccccc1-c1[nH]ncc1CN1C[C@@H]2CCN(S(C)(=O)=O)C[C@]2(CF)C1` gave an RP-LC retention time of 583 s.
The same measure for `Cc1ccc(CNc2nc3ccncc3n(C(C)C)c2=O)cc1`: 701 s.
For `O=C(COc1ccc(Cl)cc1)N1CCN(c2cc(-c3cccs3)[nH]n2)CC1`, the RP-LC retention time worked out at 864 s.
The result for `CC(=O)c1ccc2c3c(cccc13)C(=O)N(c1ccccc1)C2=O` reads 811 s.
The result for `Cc1ccc(NC(=O)C2CCc3nc(N4CCOCC4)ncc3C2)c(F)c1` (centres undefined) reads 731 s.
The same measure for `CCCn1cc(C(=O)NCCC(C)C)c(S(=O)(=O)N2CCN(c3ccccc3OCC)CC2)n1`: 1240 s; for `Cc1cc(C)cc(N2C(=O)CN(C3CCCC3)[C@H]3CS(=O)(=O)C[C@H]32)c1`: 790 s.
With `CCCn1cc(S(=O)(=O)NCc2ccccc2F)c2cccnc21`, the RP-LC retention time came out at 861 s.
The same measure for `COc1ccc2c(c1)C1(CCN(C(=O)NC(C)(C)C)C1)C(=O)N2` (centres undefined): 695 s.
The same measure for `CSc1cccc(NC(=O)N2CCC(CC(=O)NCc3cccc(F)c3)CC2)c1`: 843 s.
Take `CCCCNC(=O)C1CCCN(c2nnc(C)c3c(C)n(-c4ccc(Cl)cc4)nc23)C1` (centres undefined): the RP-LC retention time came out at 746 s.
`COc1cccc(C2CC(c3ccc(F)cc3)=NC3(CCN(C(C)C)CC3)N2)c1O` (centres undefined) registered an RP-LC retention time of 608 s.
Compound `Cn1cccc1C(=O)N1CC[C@H](n2c(=O)n(C)c3cccnc32)C1` registered an RP-LC retention time of 695 s.
The same measure for `COC[C@@H]1[C@H](C(=O)NCCC(C)C)CCC(=O)N1C`: 643 s; for `Cc1cc(C)cc(NC(=O)Nc2nccn(-c3cccc(F)c3)c2=O)c1`: 1030 s; for `CCC(C)N(CCNC(=O)Cn1c(=O)oc2ccccc21)Cc1ccco1` (centres undefined): 631 s.
The compound `CCN1C(=O)C2(CCN(S(=O)(=O)c3ccc(C)c(Cl)c3)CC2)c2ccccc21` displayed an RP-LC retention time of 1170 s.
The same measure for `CCn1c(=O)c(N2CCC(NC(=O)NCc3ccccc3)CC2)nc2ccccc21`: 838 s; for `c1ccc2c(c1)cnc1ccccc12`: 710 s; for `COc1cc(NC(=O)NCCc2nc3cccnc3n2C2CCCC2)cc(OC)c1`: 704 s.
Turning to `c1cnn(-c2ccc(-c3noc(-c4ccc5c(c4)OCO5)n3)cn2)c1`, the RP-LC retention time was 1170 s.
In turn, `COc1ccc(NC(=O)c2c(C)oc3nc(C)nc(N4CCOCC4)c23)cc1` yielded an RP-LC retention time of 706 s.
The same measure for `COc1ccc(CN(CCN(C)C)c2ncccn2)cc1`: 707 s; for `COC(=O)[C@@H]1Cc2c([nH]c3ccccc23)C(CCc2ccccc2)N1C(C)=O` (some centres undefined): 983 s.
The result for `COC(=O)Nc1ccc(-c2nc(N3CCOCC3)c3cnn(C4CCN(C(=O)OC)CC4)c3n2)cc1` reads 861 s; that for `Cc1ccc(N2CN(CC(=O)N3CCCc4ccccc43)S(=O)(=O)c3cccnc32)cc1`, 1030 s; that for `O=C(NC(Cc1ccccc1)c1nnc(N2CCCC2)o1)c1ccco1` (centres undefined), 713 s.
Regarding `O/N=C(\CC(O)(C(F)(F)F)C(F)(F)F)c1cccc(Cl)c1`, the RP-LC retention time was 944 s.
The same measure for `CCCNC(=O)Nc1ccc(NC(=O)N2CCCC(C(=O)NC3CCCCC3)C2)cc1` (centres undefined): 702 s; for `CNC(=O)[C@@H]1CN(C(=O)c2ccsc2)C[C@H]1c1nc(C)no1`: 615 s; for `COC(=O)c1ccc(C(=O)NCC2CCS(=O)(=O)C2)cc1` (centres undefined): 620 s.
The same measure for `CCC(C(=O)N1CCN(c2ccccn2)CC1)n1ccc2cc(S(=O)(=O)N3CCCCC3)ccc21` (centres undefined): 734 s; for `O=C(CN1CCN(C(=O)c2sc3ncccc3c2-n2cccc2)CC1)N1CCCC1`: 607 s; for `CCCN1C(=O)COc2ccc(-c3noc(-c4ccc(OC)c(OC)c4)n3)cc21`: 1110 s.
The result for `COc1ccc(NC(=O)c2nnn(-c3ccc(C)c(F)c3)c2C)cc1Cl` reads 1040 s; that for `COc1ccc(CCC(=O)NCCCOc2cccc3cccnc23)cc1`, 593 s; that for `CCSc1nc2ccc(NS(=O)(=O)c3cc(F)ccc3F)cc2s1`, 1020 s.
Compound `CCOc1ccc(NC(=O)c2cc(C(C)C)n(C3CCS(=O)(=O)C3)n2)cc1` (centres undefined) showed an RP-LC retention time of 877 s.
`COc1ccc(N2CC(c3noc(-c4cccc(Cl)c4)n3)CC2=O)cc1` (centres undefined): the RP-LC retention time turned out to be 1030 s.
For the compound `CCOc1ccc(Br)cc1S(=O)(=O)Nc1ccc(-c2cn3ccc(C)nc3n2)cc1`, the RP-LC retention time was 724 s.
The compound `CCN1c2ccc(F)cc2C(=O)NC12CCN(C(=O)c1ccc3c(c1)OCO3)CC2` yielded an RP-LC retention time of 749 s.
Compound `Nc1cc(C2CCN(C(=O)c3ccc(F)c(F)c3)CC2)no1` showed an RP-LC retention time of 680 s.
The same measure for `CCSc1nc2ccc(NS(=O)(=O)c3cc(C)cc(C)c3)cc2s1`: 1120 s.
In turn, `O=C(c1cnn2c(-c3ccc4c(c3)OCO4)ccnc12)N1CCN(Cc2ccc3c(c2)OCO3)CC1` gave an RP-LC retention time of 648 s.
`COc1ccc(C)cc1NC(=O)Cn1c(N)nc(C)cc1=O` gave an RP-LC retention time of 618 s.
Compound `COc1cc(NC(=O)Cn2nc(N3CCCC3)c3ccccc3c2=O)cc(OC)c1` showed an RP-LC retention time of 918 s.
